Assays:
[1] = system: heterozygous Kcnc1 R320H mice; experiment: Pentylenetetrazole (PTZ) induced seizure, Kcnc1 model; format: in vivo, mouse
Procedure: Pentylenetetrazole (PTZ), a GABA receptor antagonist, can be used to create a common, chemically-induced seizure model, a model of generalized seizure.
Mice were acclimated to experimental area for minimum 30 minutes before experimentation. All experiments were performed between 10:00 am and 12:30 pm. The treatment compounds and PTZ were always prepared fresh.
Mice were randomly assigned either to different doses of Compound 1 (10 mg/kg, 1 mg/kg, or 0.1 mg/kg) or a vehicle control containing 0.5% methylcellulose and 0.2% tween 80, and dosed via oral gavage (p.o). Compound 1 and the vehicle control were administered 60 minutes before the injection of PTZ.
PTZ (100 mg/kg) was dissolved in saline and administered subcutaneously (s.c) to the experimental mice. The latency to full tonic-clonic seizure with hind limb extension was measured. The animals were sacrificed either at the time of hind limb extension or 40 minutes after PTZ administration if no hind limb extension was recorded.
Data were analyzed using a Mantel-Cox log-rank test. Brain tissue and plasma were collected from some mice for each dose of Compound 1 at the PTZ endpoint for PK analysis.

healthy participants = experiment: Phase 1 SAD/MAD trial: EEG pharmacodynamics (ASSR, qEEG); format: in vivo, human; settings: for reduction from baseline in ASSR phase-locking factor (PLF): Day 14, 2 hours 35 minutes postdose
Procedure: This was a 3-part Phase 1 clinical trial in healthy participants aged 18-55 years. Parts A and B were randomized, placebo-controlled and evaluated the effects of single (2.5-150 mg) and multiple (30-120 mg, 14 days QD (every day)) ascending oral doses of Compound 1, respectively. Part C was an open-label, randomized, crossover design evaluating the PK of a single oral dose (90 mg) in fasted and fed states. In Parts A (n=64) and B (n=32), participants were randomized 3:1 to Compound 1 or placebo (n=8/cohort). In Part C (n=16), participants were randomized 1:1 to one of two treatment sequences receiving a single dose of 90 mg Compound 1 in the fed (following a high-fat/high calorie meal) or fasted (≥10 hours after the last, and 4 hours before the next, meal) state.
In this clinical trial, the PD activity of Compound 1 was evaluated in healthy participants using electroencephalogram (EEG)-based auditory steady-state response (ASSR) measures and resting state EEG (qEEG)-based spectral power measures under eyes-open and eyes-closed conditions.

[2] = system: hNaV1.1, hNaV1.2, hNaV1.5, rNaV1.2, dNaV1.2, mNaV1.6, rNaV1.6; experiment: Persistent INa of other NaV isoforms and orthologs, patch clamp; settings: read-out: persistent INa IC50 values across isoforms and orthologs
Excerpt: Persistent INa was activated from resting/closed channel conformations by maintaining a hyperpolarized holding potential (−120 mV).

human NaV1.6 = target: T1, human NaV1.6 (Homo sapiens, UniProt Q9UQD0); experiment: Peak INa tonic block (TB), PatchXpress patch clamp; format: cell-based
T1 construct: stably expressing either human NaV1.6 (NP_055006); expressed in transfected cells
T1 sequence (Q9UQD0 whole entry): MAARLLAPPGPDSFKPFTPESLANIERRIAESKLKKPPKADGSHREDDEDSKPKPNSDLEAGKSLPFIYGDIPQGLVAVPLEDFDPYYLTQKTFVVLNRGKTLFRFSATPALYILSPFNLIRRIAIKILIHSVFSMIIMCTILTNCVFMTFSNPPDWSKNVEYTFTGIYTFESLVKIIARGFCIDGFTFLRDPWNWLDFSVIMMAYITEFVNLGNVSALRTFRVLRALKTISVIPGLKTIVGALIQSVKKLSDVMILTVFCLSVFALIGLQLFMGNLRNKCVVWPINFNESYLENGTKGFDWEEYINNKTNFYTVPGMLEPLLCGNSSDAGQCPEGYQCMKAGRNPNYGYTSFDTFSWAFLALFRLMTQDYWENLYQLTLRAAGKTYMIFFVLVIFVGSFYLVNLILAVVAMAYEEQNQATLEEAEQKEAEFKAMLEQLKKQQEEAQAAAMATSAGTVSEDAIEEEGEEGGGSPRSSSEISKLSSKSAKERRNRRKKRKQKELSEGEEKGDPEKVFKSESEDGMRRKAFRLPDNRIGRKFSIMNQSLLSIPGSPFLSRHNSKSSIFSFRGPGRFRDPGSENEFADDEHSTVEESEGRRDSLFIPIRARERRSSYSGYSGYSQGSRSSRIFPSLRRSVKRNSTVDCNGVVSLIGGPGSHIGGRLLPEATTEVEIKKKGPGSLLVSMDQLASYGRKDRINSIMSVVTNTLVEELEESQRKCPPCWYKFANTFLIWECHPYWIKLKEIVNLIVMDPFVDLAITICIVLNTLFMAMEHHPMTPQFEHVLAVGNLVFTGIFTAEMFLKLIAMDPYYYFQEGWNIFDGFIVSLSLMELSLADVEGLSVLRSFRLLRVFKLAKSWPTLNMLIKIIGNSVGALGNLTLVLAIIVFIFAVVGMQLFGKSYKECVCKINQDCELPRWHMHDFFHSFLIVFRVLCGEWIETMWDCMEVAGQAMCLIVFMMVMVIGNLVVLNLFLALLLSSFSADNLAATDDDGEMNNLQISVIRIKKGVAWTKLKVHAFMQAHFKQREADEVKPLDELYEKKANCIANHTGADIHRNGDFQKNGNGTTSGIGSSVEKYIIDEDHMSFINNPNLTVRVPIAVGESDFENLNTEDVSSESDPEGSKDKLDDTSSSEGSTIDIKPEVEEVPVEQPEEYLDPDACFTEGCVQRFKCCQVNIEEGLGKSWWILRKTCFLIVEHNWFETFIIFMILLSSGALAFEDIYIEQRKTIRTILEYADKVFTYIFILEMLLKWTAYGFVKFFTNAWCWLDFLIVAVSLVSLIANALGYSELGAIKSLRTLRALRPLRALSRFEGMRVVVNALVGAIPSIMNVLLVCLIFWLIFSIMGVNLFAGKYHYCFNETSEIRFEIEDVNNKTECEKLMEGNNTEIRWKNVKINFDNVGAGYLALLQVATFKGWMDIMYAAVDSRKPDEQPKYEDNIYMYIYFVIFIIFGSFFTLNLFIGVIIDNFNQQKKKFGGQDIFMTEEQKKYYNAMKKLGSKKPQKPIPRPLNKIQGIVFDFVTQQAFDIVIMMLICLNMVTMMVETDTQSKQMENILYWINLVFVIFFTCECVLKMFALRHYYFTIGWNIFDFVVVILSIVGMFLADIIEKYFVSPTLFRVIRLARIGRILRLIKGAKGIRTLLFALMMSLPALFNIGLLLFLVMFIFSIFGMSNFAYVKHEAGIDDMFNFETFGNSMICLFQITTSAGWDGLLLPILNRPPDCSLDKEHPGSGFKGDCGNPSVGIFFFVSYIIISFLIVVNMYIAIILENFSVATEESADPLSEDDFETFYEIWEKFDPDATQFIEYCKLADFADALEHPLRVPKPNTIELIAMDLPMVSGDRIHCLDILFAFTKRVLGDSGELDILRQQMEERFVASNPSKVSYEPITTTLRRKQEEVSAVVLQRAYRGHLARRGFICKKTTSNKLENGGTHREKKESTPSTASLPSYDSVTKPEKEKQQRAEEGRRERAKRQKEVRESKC
Procedure: HEK-293 cell lines stably expressing either human NaV1.6 (NP_055006), mouse NaV1.6 (NP_035453.2), or rat NaV1.6 (NP_062139) were used. All cells were seeded at 2×10^6 cells per Nunc T75 flask for 2 days in culture. At time of harvest for assays, the cell counts were approximately 6×10^6 cells. Cells were washed (1×) in DPBS (Hyclone, Cat #SH30028.03) for approximately 30 seconds. 1 mL of 1×0.05% Trypsin-EDTA (GIBCO Cat #25300-054) was added and swirled around to cover the bottom of the flask and was allowed to sit on the cells for approximately 4 minutes (±90% of the cells were lifted by light tapping of the flask). 10 mL of warmed media (DMEM high glucose media Hyclone, SH30022.02 supplemented with 10% Fetal Bovine Serum, 2 mM Sodium Pyruvate, 10 mM HEPES and 400 μg/mL G418) was added to inactivate the trypsin. Cells were triturated until a single cell suspension was achieved. A cell count was performed and cells were aliquoted into a 250 ml centrifuge tube at a concentration of 2×10^5/mL in +30 ml of prewarmed media. The 250 mL centrifuge tube was placed on a rocker in an incubator set at 28° C. and gently rocked for approximately 1 hour to allow cells to recover. Cell aliquots of 5 mL (1×10^6 cells) were placed in a 15 mL centrifuge tube and spun at 100×g for 2 minutes. Supernatant was removed leaving a cell pellet. 100 μL of external recording solution was added to the pellet and triturated 20 times to achieve a single cell suspension and then transferred to a 1.5 mL tube for placement in the PatchXpress® (Molecular Devices).
Compound 1 was provided as powder and prepared as 10 mM DMSO stocks in 1 dram glass vials prior to assay. Immediately prior to assay, Compound 1 was diluted with DMSO to 300×, the designated final assay concentration. Assay dilutions (1× concentration) were prepared by pipetting 3 μL of diluted Compound 1 into 897 μL of extracellular solution in a 1 mL glass shell vial. Vials were capped and vortexed until initiation of the PatchXpress® (Molecular Devices) recording protocol.
The same intracellular recording solution was used for the persistent and peak INa assays, which contained: 135 mM CsF, 10 mM CsCl, 5 mM NaCl, 10 mM HEPES, 5 mM EGTA at a pH of 7.4 (adjusted with CsOH) and a measured osmolarity of 298 mOsm (adjusted with mannitol). For the persistent INa assay, the external recording solution contained: 135 mM NaCl, 5.4 mM KCl, 5 mM glucose, 2 mM CaCl2), 1 mM MgCl2, 10 mM HEPES, and 200 nM ATX-II (sea anemone toxin, Alomone Labs; Jerusalem, Israel) at a pH of 7.4 (adjusted with NaOH) and a measured osmolarity of 300 mOsm (adjusted with mannitol). For the peak INa assays, the external recording solution contained: 100 mM NaCl, 35 mM NMDG, 5.4 mM KCl, 5 mM glucose, 2 mM CaCl2), 1 mM MgCl2, and 10 mM HEPES at a pH of 7.4 (adjusted with NaOH) and a measured osmolarity of 300 mOsm (adjusted with mannitol).
All studies were performed using the PatchXpress® (Molecular Devices) automated patch clamp platform (Molecular Devices) using the whole cell configuration. Recordings were performed at room temperature. Data were collected using Patch Commander software (Molecular Devices) and processed using DataXpress 2.0 (Molecular Devices). Cell acceptance criteria were continuously monitored by custom scripts during the recording. Acceptance criteria for all assays were: baseline peak INa>800 pA, Rseal>200 MΩ, and, where appropriate, persistent INa>100 pA. Compensation was 50% and leak subtraction was not used. Currents were filtered at 5 kHz and digitized at 32.5 kHz. Raccess and Rseal were monitored throughout the recording and cells with Raccess>10 MΩ or Rseal<200 MΩ were terminated automatically by script.
Tonic Block (TB): Tonic Block (TB) protocols used low stimulation rates (about 0.1 Hz) and negative potentials (−120 mV) to keep channels in closed (resting) states. Pharmacology was measured during peak INa in response to step to 0 mV. No leak subtraction was used.

CCOC(F)(F)c1nnc2cnc(-c3cnc(OCC(F)(F)F)c(F)c3)cn12 [Compound 1, 3-(ethoxydifluoromethyl)-6-(5-fluoro-6-(2,2,2-trifluoroethoxy)pyridin-3-yl)-[1,2,4]triazolo[4,3-a]pyrazine]
efficacy in KCNC1 R320H PTZ seizure model ([1]; 10 mg/kg p.o., 60 min before PTZ 100 mg/kg s.c.): highly efficacious
protection from hindlimb extension (FIG. 14D) ([1]; Kcnc1 DEE mouse model, PTZ): robust anticonvulsant activity
reduction from baseline in ASSR phase-locking factor (PLF) (healthy participants; 90 mg QD): approximately 30%
reduction from baseline in ASSR phase-locking factor (PLF) (healthy participants; 120 mg QD): ~60%
qEEG Delta (1.5-6 Hz) and Theta (6-8.5 Hz) band spectral power (healthy participants; 120 mg single dose and 120 mg QD): Increases from baseline
ASSR-based absolute evoked gamma power vs placebo (healthy participants; any Compound 1 dose level): No statistically significant differences
IC50 [2]: 0.109 to 0.18 µM
Ratio to Pers. INa (Peak INa TB / persistent INa) (human NaV1.6; hNaV1.6): 60
IC50 (human NaV1.6; hNaV1.6, 0.1 Hz, resting state): 8.47 µM

Source: patent US12582652B2, “3-(ethoxydifluoromethyl)-6-(5-fluoro-6-(2,2,2-trifluoroethoxy)pyridin-3-yl)-[1,2,4]triazolo[4,3-a]pyrazine as an ion channel modulator” (Praxis Precision Medicines, Inc., priority 2022, dated 2026)
